{
  "source": "patent US20250215087A1",
  "about": "“COMBINATION THERAPY OF KRAS INHIBITOR AND TREG DEPLETING AGENT” (Bristol-Myers Squibb Company, priority 2023, published 2025)",
  "key": {"[1]": {"system": "KRAS-G12C mutant NSCLC", "settings": "clinical trials; cited from earlier work"}, "[2]": {"system": "orthotopic Lewis lung (3LL) NSCLC tumors", "settings": "seven consecutive days of treatment; van Maldegem et al. 2021; cited from earlier work"}, "[3]": {"system": "Lewis Lung (3LL) carcinoma model", "settings": "van Maldegem et al. 2021, cited from earlier work"}, "[4]": {"system": "Lewis Lung (3LL) carcinoma model", "test": "Imaging mass cytometry of Lewis Lung (3LL) carcinoma lungs after 7 days MRTX1257 or Vehicle; spatial community analysis", "format": "in vivo, C57BL/6 mice", "procedure": "Two datasets of IMC data generated from an in vivo experiment in which the Lewis Lung (3LL) carcinoma model was treated with the KRAS-G12C inhibitor MRTX1257 for 7 days prior to harvesting of the lungs were published previously in van Maldegem et al. (2021), Nat. Commun. 12:5906 (dataset 1) and Mugarza et al. (2022), Sci. Adv. 8: eabm8780 (dataset 2).\nFollowing 3 weeks, mice were treated with either 50 mg/kg MRTX1257 or Vehicle for 7 consecutive days. Mice were sacrificed on day 8 and lungs were harvested and frozen. Tumors of 3 mice from each treatment group for dataset 1 and 4 mice from each treatment group for dataset 2 were processed for imaging mass cytometry. Tissue slices were stained with a cocktail of antibodies conjugated to heavy metal isotopes and images were obtained using a Hyperion Imaging Mass Cytometer (Standard BioTools). Different antibody panels were used for the generation of datasets 1 and 2 (FIGS. 1A and 1B). In total, 6 images were acquired from both Vehicle and MRTX1257 groups for dataset 1, and the Vehicle group for dataset 2, and 5 images were acquired from the MRTX1257 group for dataset 2.\nFor further details on the in vivo study and IMC, including tissue processing, antibody staining, imaging acquisition and cell typing, reference is generally made to the Materials and Methods and Supplementary Materials provided by van Maldegem et al. (2021) and Mugarza et al. (2022), which are herewith incorporated by reference.\nAs described in van Maldegem et al. (2021), cellular neighbors were identified during segmentation using the CellProfiler module ‘Measure Object Neighbours’, following steps to identify individual cells. Neighbors were identified if a cell's boundary was within 15 μm (pixels) of the cell boundary of interest. Neighbor information was obtained for every cell object in each tissue.\nEach ‘neighborhood’ was identified as a single cell and its local neighbors; defined by 15 μm object relationship output data from segmentation.\nExpression values for each marker were normalized to the mean intensity of Xenon134. Following this, the data for each image across both treatment groups was concatenated, creating a size of 282,837 cells for dataset 1 and 626,070 cells for dataset 2. Each channel was then scaled to the 99th percentile. […] These clusters formed the basis to identify cell types present in the tissue, including tumor, lymphocytes, myeloid cells, fibroblasts, and endothelium. More details are available in van Maldegem et al., 2021 for dataset 1 and Mugarza et al., 2022 for dataset 2.\nAs described in van Maldegem et al., 2021, the neighbourhood method developed by Bodenmiller (https://github.com/BodenmillerGroup/neighbourhood; Schapiro et al., 2017, histoCAT: analysis of cell phenotypes and interactions in multiplex image cytometry data. Nat Methods 14, 873-876) was used to identify the enrichment of cell types within the 15-pixel neighborhood of each cell compared to random permutations of events, with a modification of only calculating enrichment in the CD8^+ T cell neighborhood, separated by community and using 1000 rounds of permutation. This was carried out for the community names T cell/normal adjacent community (T/NA), T cell/Type 1 macrophage community (T/M1), T cell/Dendritic cell community (T/DC), T cell/Type 2 macrophage community 1 (T/M2_1) and T cell/Type 2 macrophage community 2 (T/M2_2) communities for the MRTX1257 treatment setting.\nNeighborhood enrichment analysis was also used for exploring cell pair relationships in the presence or absence of Tregs within the T/DC and T/M2_2 communities following MRTX treatment. Enrichment scores were only deemed statistically significant if the p-value when comparing real neighbors to randomized neighbors was ≤0.01."}, "[5]": {"target": "T1, CCR4 (Homo sapiens, UniProt P51679)", "T1 construct": "host or cells: Tregs, conventional CD4+ and CD8+ T cells (in vivo, cited study)", "T1 sequence (P51679 1-360)": "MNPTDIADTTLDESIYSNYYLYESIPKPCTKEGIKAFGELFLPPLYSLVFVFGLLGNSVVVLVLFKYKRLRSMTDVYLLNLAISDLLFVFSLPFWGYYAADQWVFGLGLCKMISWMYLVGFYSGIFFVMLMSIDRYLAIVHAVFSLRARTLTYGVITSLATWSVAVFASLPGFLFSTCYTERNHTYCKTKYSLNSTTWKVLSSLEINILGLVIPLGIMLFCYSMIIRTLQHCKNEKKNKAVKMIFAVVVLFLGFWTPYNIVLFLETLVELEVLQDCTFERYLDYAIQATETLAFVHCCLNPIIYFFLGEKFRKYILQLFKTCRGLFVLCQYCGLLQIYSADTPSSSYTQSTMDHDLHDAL", "settings": "Kurose et al. 2015; cited from earlier work"}, "[6]": {"system": "advanced melanoma", "settings": "Hodi et al. 2010; cited from earlier work"}},
  "data": [
    {"molecule": "C=CC(=O)N1CCN(c2nc(=O)n(-c3c(C)ccnc3C(C)C)c3nc(-c4c(O)cccc4F)c(F)cc23)[C@@H](C)C1", "note": "[sotorasib]", "values": [
      {"measurement": "patients achieving temporary disease control", "setting": "[1]", "value": 80, "unit": "%"}
    ]},
    {"molecule": "C=CC(=O)N1CCN(c2nc(OC[C@@H]3CCCN3C)nc3c2CCN(c2cccc4cccc(C)c24)C3)C[C@@H]1CC#N", "note": "[MRTX1257]", "values": [
      {"measurement": "tumor regression and growth", "setting": "[2]", "value": "tumors did not regress although tumor growth was inhibited"},
      {"measurement": "immune phenotype of the tumor microenvironment", "setting": "[3]; 50 mg/kg MRTX1257 for 7 days vs Vehicle", "value": "remodelled into a more inflammatory immune infiltrated TME"},
      {"measurement": "type 2 macrophage number and activation markers", "setting": "[3]; previously described", "value": "increased in cell number and upregulated activation markers such as PD-L1 and MHC-II"},
      {"measurement": "frequency of c-casp3+ tumor cells in the CD8+ T cell close neighborhood", "setting": "[4]; T/DC community, 'No Tregs' neighborhoods, FIG. 25", "value": "increased"},
      {"measurement": "Ki67 expression on CD4+ and CD8+ T cells", "setting": "[4]; T/DC community, dataset 2, FIG. 19A", "value": "significant increase"},
      {"measurement": "occurrences of a c-casp3+ tumor cell in the 15-pixel neighborhood of a CD8+ T cell", "setting": "[4]; T/DC community, dataset 2, FIG. 19B", "value": "increased"},
      {"measurement": "images with CD4+ T cells and dendritic cells significantly enriched in the neighborhood of a CD8+ T cell", "setting": "[4]; T/DC community, vs random permutation, FIG. 21A", "value": "at least five out of the six images"},
      {"measurement": "images with Treg cells significantly enriched in the neighborhood of CD8+ T cells", "setting": "[4]; T/DC community, FIG. 21A", "value": "3 out of the 6"},
      {"measurement": "mean expression of PD-1 on CD8+ T cells", "setting": "[4]; T/DC, T/M2_1 and T/M2_2 communities, most pronounced in T/DC, FIGS. 16A-16B", "value": "an increase occurred"},
      {"measurement": "PD-L1 expression on dendritic cells (accompanied by high CD86)", "setting": "[4]; T/DC, T/M2_1 and T/M2_2 communities, FIGS. 13A-13C", "value": "increased PD-L1 expression"},
      {"measurement": "interactions between tumor cells and neutrophils (communities 5, 13, 14, 15)", "setting": "[4]; dataset 1, MRTX1257 vs Vehicle, FIG. 5", "value": "lost or dispersed"},
      {"measurement": "mean expression of CXCL9 on dendritic cells and macrophages", "setting": "[4]; dataset 2, highest in T/DC community, FIG. 14", "value": "increased"},
      {"measurement": "mean expression of PD-1 on regulatory T cells", "setting": "[4]; mainly in the T/DC community, FIG. 16D", "value": "higher PD-1 expression"},
      {"measurement": "count of regulatory T cells", "setting": "[4]; most notably in T/DC and T/M2_2 communities, FIG. 22", "value": "increased in size"},
      {"measurement": "spatial distribution and neighborhood environment of CD8+ T cells", "setting": "[4]; top 5 CD8+ T cell rich communities, MRTX1257 vs Vehicle, FIG. 11", "value": "shift in spatial distribution and neighborhood environment"},
      {"measurement": "percentage of PD-1+ CD8+ T cells that are positive for LAG-3", "setting": "[4]; tumor-associated communities following MRTX treatment, FIG. 17B", "value": "~30", "unit": "%"}
    ]},
    {"molecule": "mogamulizumab: humanized, afucosylated monoclonal antibody targeting CC chemokine receptor 4 (CCR4)", "values": [
      {"measurement": "CD8+ T cell numbers", "setting": "[5]", "value": "modest reductions"},
      {"measurement": "Treg depletion", "setting": "[5]", "value": "achieved"},
      {"measurement": "conventional CD4+ T cells", "setting": "[5]", "value": "significant depletion"}
    ]},
    {"molecule": "Ipilimumab: human anti-CTLA-4 antibody with IgG1 constant region, SEQ ID NO: 150 and 151", "values": [
      {"measurement": "overall survival", "setting": "[6]", "value": "improvement in overall survival"}
    ]}
  ]
}
